This is an account of results in publication PMC5054527, “Mechanism of high affinity inhibition of the human urate transporter URAT1” (Scientific Reports, 2016).

As usually defined, the IC50 is the point on the concentration scale where inhibition reaches its midpoint.

Assay in all cases: URAT1 uric acid transport activity assay
What all share (format): cell-based

In test [1] the target is T1, r-M481I rURAT1 point mutant (Rattus norvegicus, UniProt Q3ZAV1, M481I).
T1 sequence (Q3ZAV1 1-553 M481I): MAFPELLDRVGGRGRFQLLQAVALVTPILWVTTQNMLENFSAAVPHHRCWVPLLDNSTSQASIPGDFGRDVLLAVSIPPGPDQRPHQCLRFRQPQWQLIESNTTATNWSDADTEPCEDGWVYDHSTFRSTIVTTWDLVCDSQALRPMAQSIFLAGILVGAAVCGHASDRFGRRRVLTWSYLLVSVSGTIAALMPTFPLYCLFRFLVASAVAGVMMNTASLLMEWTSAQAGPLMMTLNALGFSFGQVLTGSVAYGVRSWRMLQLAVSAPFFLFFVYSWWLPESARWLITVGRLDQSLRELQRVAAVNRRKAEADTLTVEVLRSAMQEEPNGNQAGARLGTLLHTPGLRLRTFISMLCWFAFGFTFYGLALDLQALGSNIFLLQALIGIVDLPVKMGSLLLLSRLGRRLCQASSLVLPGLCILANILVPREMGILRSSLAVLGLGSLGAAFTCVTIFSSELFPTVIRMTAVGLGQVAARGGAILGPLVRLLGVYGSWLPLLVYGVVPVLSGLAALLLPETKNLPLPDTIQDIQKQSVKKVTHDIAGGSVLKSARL
In a few lines: (§1)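 Cells expressing site-directed rat URAT1 mutants were exposed to inhibitor dilutions for 5 minutes before radiolabelled uric acid (100 μM) was added for 10 minutes. Potency was derived by nonlinear regression of log inhibitor versus response.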

Test [2] has as its target T2, r-V31L rURAT1 point mutant (Rattus norvegicus, UniProt Q3ZAV1, V31L).
T2 construct: expressed in transfected cells; host or cells: HEK-293T
T2 sequence (Q3ZAV1 1-553 V31L): T1 sequence (Q3ZAV1 1-553 M481I) with V31L, I481M
Summed up: as §1

Test [3] concerns the target T3, r-F351C rURAT1 point mutant (Rattus norvegicus, UniProt Q3ZAV1, F351C).
T3 sequence (Q3ZAV1 1-553 F351C): T1 sequence (Q3ZAV1 1-553 M481I) with F351C, I481M
Summed up:
as §1

Each structure is given as a SMILES string. Residue numbers refer to the chain shown, from its start. Where two headings read alike, the source gives them in different places.

Take `CCc1oc2ccccc2c1C(=O)c1cc(Br)c(O)c(Br)c1` [benzbromarone]: the IC50 in test [1] came out at 15 ± 1.1 µM; in test [2] it was 17 ± 3.4 µM; in test [3], 24 ± 3.3 µM.
For `O=C(O)CSc1nnc(Br)n1-c1ccc(C2CC2)c2ccccc12` [lesinurad, 2-((5-bromo-4-(4-cyclopropylnaphthalen-1-yl)-4H-1,2,4-triazol-3-yl)thio)acetic acid], the IC50 in test [1] (r-M481I, MES pH 5.5, 100 μM 14C-uric acid, read-out: IC50 (uric acid transport)) was 71 ± 3 µM; in test [2] (r-V31L, MES pH 5.5, 100 μM 14C-uric acid, read-out: IC50 (uric acid transport)) it was 85 ± 4.5 µM; in test [3] (r-F351C, MES pH 5.5, 100 μM 14C-uric acid, read-out: IC50 (uric acid transport)) it was 82 ± 1.7 µM.
With `O=C1C(CC[S+]([O-])c2ccccc2)C(=O)N(c2ccccc2)N1c1ccccc1` (stereo not shown) [sulfinpyrazone], the “fold increased affinity of r-M481I compared to rURAT1” value in test [1] (from IC50 values) stood at 1.7 fold. The 50% inhibitory concentration (IC50) worked out at 395 ± 68 µM in test [1] (r-M481I, HEPES pH 7.3, 100 μM 14C-uric acid, read-out: IC50 (uric acid transport)); 266 ± 70 µM in test [2] (r-V31L, HEPES pH 7.3, 100 μM 14C-uric acid, read-out: IC50 (uric acid transport)); 924 ± 276 µM in test [3] (r-F351C, HEPES pH 7.3, 100 μM 14C-uric acid, read-out: IC50 (uric acid transport)).
